The values that follow are results of earlier work, collected in US6743448B2 (priority 2000, dated 2004).

One data set deals with prostatic cells. The note with it: 1 nM for 2-7 days.
The next data set has as its system IGF-I mRNA. The note with it: relative to hypophysectomized control animals.
Data set [1] deals with formation of DHT and androstenedione. To be noted: 14C-testosterone as substrate, effective inhibitory concentrations, n 4, p<0.001.

In the case of `COc1ccc2[nH]cc(CCNC(C)=O)c2c1` [Melatonin, melatonin], the “Effect on cell growth” value in the data set with prostatic cells was “inhibit cell growth”.
As for `C[C@]12CCC(=O)C[C@@H]1CC[C@@H]1[C@@H]2CC[C@]2(C)[C@@H](O)CC[C@@H]12` [DHT, dihydrotestosterone], in the data set on IGF-I mRNA, the “Increase of the IGF-I mRNA level” value was 40 times.
`C[C@]12CC[C@H]3[C@@H](CCC4=CC(=O)CC[C@@]43C)[C@@H]1CC[C@@H]2O` [Testosterone, (17)-17-Hydroxyandrost-4-en-3-one]: the “Increase of the IGF-I mRNA level” value in the data set on IGF-I mRNA is recorded as 30 times.
In the case of `CC(=O)[C@H]1CC[C@H]2[C@@H]3CCC4=CC(=O)CC[C@]4(C)[C@H]3CC[C@]12C` [Progesterone, progesterone], in data set [1], the “Inhibition of the formation of DHT” value is 10 fold and the “Inhibition of the formation of androstenedione” value is 3-5 fold.
